Assay results: PMC7206119, “RIP1 inhibition blocks inflammatory diseases but not tumor growth or metastases” (Cell Death and Differentiation, 2019)

Key:
Assay in all cases: biochemical
Set-up in all cases: DiscoverX kinase panel, active-site competition binding (KINOMEscan type), percent of control at one concentration
Conditions in all cases: competition binding, percent of control
RAF1 = RAF1 (Homo sapiens, UniProt P04049)
EGFR(G719S) = EGFR(G719S) (Homo sapiens, UniProt P00533, G719S)
EPHB6 = EPHB6 (Homo sapiens, UniProt O15197)
CDK2 = CDK2 (Homo sapiens, UniProt P24941)
YSK4 = biological target: T1, YSK4 (Homo sapiens, UniProt Q56UN5)
T1 construct: gene MAP3K19

DDR1 = DDR1 (Homo sapiens, UniProt Q08345)
Chain of DDR1 (Q08345 whole entry): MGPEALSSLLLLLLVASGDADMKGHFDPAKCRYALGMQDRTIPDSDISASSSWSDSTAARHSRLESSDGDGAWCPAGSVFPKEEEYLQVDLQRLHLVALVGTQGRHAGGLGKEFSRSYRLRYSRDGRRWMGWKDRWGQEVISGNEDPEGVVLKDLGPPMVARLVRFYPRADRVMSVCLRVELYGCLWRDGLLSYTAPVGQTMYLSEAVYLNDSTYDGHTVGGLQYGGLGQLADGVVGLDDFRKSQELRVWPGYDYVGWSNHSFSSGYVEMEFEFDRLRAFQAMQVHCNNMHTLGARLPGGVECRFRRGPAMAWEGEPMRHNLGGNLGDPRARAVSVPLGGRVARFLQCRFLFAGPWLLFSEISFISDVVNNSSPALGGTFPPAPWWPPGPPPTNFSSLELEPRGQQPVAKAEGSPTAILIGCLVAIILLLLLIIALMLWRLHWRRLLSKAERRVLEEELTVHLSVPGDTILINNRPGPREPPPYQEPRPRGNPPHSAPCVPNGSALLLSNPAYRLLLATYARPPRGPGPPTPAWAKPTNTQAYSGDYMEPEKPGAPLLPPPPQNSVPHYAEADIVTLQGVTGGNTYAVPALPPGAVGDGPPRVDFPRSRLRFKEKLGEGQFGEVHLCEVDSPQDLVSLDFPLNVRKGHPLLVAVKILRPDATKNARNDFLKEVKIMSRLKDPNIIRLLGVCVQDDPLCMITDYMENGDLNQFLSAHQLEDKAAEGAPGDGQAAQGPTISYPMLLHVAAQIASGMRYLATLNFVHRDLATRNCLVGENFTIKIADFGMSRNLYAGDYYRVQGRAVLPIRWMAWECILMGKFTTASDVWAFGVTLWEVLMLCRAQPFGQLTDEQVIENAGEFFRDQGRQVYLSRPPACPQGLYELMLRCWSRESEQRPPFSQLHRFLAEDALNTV

EPHB2 = EPHB2 (Homo sapiens, UniProt P29323)
Chain of EPHB2 (P29323 whole entry): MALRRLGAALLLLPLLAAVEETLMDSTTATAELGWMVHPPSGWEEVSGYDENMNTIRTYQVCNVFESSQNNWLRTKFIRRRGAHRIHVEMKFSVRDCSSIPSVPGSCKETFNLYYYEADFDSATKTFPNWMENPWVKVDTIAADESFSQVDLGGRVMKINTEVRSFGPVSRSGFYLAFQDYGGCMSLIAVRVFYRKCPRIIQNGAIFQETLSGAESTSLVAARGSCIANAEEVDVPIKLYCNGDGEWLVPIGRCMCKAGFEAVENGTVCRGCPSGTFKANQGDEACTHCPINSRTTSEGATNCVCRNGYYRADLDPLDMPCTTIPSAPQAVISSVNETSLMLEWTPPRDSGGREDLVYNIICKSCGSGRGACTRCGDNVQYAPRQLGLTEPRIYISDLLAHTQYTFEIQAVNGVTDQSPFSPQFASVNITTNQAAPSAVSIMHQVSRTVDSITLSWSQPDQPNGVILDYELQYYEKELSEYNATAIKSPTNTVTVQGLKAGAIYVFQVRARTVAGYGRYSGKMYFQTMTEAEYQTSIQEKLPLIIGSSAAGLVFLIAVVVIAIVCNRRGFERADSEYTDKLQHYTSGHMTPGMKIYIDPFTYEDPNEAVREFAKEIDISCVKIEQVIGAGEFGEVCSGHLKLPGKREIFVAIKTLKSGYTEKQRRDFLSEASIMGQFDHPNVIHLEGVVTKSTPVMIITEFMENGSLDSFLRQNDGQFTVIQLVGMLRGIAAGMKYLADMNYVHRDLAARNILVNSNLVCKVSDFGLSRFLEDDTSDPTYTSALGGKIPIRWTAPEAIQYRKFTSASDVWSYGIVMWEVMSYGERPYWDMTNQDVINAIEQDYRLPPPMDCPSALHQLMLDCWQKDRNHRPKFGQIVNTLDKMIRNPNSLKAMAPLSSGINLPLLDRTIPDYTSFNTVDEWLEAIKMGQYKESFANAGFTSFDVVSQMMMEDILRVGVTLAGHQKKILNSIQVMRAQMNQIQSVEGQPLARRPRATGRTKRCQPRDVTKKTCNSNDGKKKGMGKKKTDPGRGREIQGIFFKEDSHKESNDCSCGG

IRAK3 = IRAK3 (Homo sapiens, UniProt Q9Y616)
[1] = biological target: EGFR(L747-S752del, P753S) (Homo sapiens, UniProt P00533, DEL747-752/P753S)
TAK1 = biological target: T2, TAK1 (Homo sapiens, UniProt O43318)
T2 construct: gene MAP3K7

BRSK2 = BRSK2 (Homo sapiens, UniProt Q8IWQ3)
BUB1 = BUB1 (Homo sapiens, UniProt O43683)
EGFR(L858R,T790M) = EGFR(L858R,T790M) (Homo sapiens, UniProt P00533, L858R/T790M)
Chain of EGFR(L858R,T790M) (P00533 whole entry T790M/L858R): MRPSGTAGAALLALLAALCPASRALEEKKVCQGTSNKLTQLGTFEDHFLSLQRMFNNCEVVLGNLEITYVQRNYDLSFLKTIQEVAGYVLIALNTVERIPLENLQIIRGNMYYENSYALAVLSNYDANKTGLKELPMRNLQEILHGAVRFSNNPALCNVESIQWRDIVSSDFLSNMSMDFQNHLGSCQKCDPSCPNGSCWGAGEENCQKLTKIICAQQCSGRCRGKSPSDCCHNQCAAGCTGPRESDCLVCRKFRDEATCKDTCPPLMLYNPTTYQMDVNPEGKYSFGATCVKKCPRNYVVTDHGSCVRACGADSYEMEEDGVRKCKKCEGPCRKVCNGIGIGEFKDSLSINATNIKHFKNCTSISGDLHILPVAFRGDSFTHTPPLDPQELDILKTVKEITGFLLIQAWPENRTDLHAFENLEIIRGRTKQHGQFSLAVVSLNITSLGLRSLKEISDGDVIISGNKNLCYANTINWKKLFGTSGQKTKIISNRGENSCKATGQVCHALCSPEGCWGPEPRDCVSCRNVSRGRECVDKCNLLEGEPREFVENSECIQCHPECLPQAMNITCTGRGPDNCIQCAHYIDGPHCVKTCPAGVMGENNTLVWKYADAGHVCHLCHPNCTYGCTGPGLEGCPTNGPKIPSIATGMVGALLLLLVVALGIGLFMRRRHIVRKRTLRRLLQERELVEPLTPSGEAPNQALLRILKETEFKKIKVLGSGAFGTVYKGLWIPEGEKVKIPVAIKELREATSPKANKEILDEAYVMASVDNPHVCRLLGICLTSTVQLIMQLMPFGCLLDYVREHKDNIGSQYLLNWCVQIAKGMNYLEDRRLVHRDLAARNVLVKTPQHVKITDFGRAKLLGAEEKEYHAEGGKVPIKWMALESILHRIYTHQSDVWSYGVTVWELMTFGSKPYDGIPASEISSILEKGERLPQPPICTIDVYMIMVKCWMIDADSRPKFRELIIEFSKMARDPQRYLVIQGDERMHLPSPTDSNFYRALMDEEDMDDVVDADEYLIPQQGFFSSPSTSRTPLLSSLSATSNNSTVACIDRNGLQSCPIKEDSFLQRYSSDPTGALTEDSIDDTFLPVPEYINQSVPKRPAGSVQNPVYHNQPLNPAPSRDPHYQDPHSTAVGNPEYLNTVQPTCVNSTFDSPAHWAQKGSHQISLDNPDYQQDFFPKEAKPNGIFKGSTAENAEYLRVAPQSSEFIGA

KIT(V559D) = KIT(V559D) (Homo sapiens, UniProt P10721, V559D)
BRSK1 = BRSK1 (Homo sapiens, UniProt Q8TDC3)
NDR2 = biological target: T3, NDR2 (Homo sapiens, UniProt Q9Y2H1)
T3 construct: gene STK38L
T3 sequence (Q9Y2H1 whole entry): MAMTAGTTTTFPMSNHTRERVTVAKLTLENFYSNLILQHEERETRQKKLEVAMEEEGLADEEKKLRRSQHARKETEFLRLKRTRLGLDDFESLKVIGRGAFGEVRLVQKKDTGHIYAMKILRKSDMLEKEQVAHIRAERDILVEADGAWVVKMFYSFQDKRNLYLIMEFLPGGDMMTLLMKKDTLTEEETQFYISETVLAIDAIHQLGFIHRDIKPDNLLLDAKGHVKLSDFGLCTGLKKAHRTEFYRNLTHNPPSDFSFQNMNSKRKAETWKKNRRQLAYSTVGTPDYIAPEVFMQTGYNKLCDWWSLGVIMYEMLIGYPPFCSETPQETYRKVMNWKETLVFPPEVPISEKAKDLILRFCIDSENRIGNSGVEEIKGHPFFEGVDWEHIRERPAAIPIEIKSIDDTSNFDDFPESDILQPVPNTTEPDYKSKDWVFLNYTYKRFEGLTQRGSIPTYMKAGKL

CHEK1 = CHEK1 (Homo sapiens, UniProt O14757)
ACVRL1 = ACVRL1 (Homo sapiens, UniProt P37023)
MAP4K3 = MAP4K3 (Homo sapiens, UniProt Q8IVH8)
KIT(A829P) = KIT(A829P) (Homo sapiens, UniProt P10721, A829P)
DAPK1 = DAPK1 (Homo sapiens, UniProt P53355)
Chain of DAPK1 (P53355 whole entry): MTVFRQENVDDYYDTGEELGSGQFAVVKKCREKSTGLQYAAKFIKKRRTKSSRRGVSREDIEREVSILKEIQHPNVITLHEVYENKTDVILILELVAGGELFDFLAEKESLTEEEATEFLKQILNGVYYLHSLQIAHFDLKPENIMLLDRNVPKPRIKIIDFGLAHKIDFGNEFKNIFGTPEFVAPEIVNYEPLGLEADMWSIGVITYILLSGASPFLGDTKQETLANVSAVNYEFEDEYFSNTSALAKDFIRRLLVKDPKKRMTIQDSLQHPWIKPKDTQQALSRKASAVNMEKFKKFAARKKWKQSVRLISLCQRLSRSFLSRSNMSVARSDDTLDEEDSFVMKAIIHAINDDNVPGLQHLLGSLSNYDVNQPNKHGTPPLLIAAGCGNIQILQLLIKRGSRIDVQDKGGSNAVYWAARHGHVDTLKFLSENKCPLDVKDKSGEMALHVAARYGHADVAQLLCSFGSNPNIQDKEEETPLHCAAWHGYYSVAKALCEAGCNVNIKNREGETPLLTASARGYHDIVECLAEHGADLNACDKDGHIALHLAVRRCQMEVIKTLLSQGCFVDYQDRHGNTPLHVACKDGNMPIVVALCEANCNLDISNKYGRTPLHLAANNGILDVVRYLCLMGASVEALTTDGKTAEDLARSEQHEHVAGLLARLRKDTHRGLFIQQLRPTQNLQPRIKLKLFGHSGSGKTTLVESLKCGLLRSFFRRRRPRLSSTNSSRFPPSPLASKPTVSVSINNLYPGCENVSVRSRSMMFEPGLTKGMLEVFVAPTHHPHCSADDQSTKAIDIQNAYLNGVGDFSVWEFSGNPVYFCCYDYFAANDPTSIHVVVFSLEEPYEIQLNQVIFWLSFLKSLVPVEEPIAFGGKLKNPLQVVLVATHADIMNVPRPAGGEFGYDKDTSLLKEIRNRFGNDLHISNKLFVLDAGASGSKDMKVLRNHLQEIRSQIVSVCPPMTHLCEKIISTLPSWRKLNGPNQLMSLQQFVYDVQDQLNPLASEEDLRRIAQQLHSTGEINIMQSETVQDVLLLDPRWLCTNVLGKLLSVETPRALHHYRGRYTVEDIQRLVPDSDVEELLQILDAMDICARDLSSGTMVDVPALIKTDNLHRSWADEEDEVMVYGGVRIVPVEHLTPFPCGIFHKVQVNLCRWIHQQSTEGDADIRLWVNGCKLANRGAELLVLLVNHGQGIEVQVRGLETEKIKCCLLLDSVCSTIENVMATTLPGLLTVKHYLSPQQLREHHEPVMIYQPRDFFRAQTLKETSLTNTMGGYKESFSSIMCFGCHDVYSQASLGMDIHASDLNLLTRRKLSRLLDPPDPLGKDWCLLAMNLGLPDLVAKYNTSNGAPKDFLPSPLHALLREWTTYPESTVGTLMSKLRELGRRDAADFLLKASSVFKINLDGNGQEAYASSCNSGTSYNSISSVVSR

With `COc1cc2c(cn1)N(C)C(=O)[C@@H](NC(=O)c1nc3n(n1)[C@H](c1ccccc1)CC3)CC2` [GNE684, (S)-N-((S)-7-methoxy-1-methyl-2-oxo-2,3,4,5-tetrahydro-1H-pyrido[3,4-b]azepin-3-yl)-5-phenyl-6,7-dihydro-5H-pyrrolo[1,2-b][1,2,4]triazole-2-carboxamide] the remaining binding at 10 µM (RAF1) was 77%, the remaining binding at 10 µM (EGFR(G719S)) was 100% and the remaining binding at 10 µM (EPHB6) was 100%. The remaining binding at 10 µM (CDK2) was 100%, the remaining binding at 10 µM (YSK4) was 92% and the remaining binding at 10 µM (DDR1) was 100%. The remaining binding at 10 µM (EPHB2) was 82%, the remaining binding at 10 µM (IRAK3) was 100% and the remaining binding at 10 µM [1] was 100%. The remaining binding at 10 µM (TAK1) was 100%, the remaining binding at 10 µM (BRSK2) was 89% and the remaining binding at 10 µM (BUB1) was 100%. For the same compound, the remaining binding at 10 µM (EGFR(L858R,T790M)) was 100%, the remaining binding at 10 µM (KIT(V559D)) was 100% and the remaining binding at 10 µM (BRSK1) was 100%. The remaining binding at 10 µM (NDR2) was 100%, the remaining binding at 10 µM (CHEK1) was 100% and the remaining binding at 10 µM (ACVRL1) was 87%. It also gave a remaining binding at 10 µM (MAP4K3) of 99%, a remaining binding at 10 µM (KIT(A829P)) of 100% and a remaining binding at 10 µM (DAPK1) of 88%.
